# Measurements reported in patent US20240325370A1, “THERAPEUTIC REGIMENS OF A DEGRADER OF BRD9” (FOGHORN THERAPEUTICS INC., priority 2021, published 2024).
# “Also recorded” adds a separate entry of the source.
# Tests used:
# [1] = target: T1, BRD9 (Homo sapiens, UniProt Q9H8M2); test: Kinetic experiments of BRD9 degradation in synovial sarcoma cell lines; type: cell-based
# T1 sequence (Q9H8M2 1-597): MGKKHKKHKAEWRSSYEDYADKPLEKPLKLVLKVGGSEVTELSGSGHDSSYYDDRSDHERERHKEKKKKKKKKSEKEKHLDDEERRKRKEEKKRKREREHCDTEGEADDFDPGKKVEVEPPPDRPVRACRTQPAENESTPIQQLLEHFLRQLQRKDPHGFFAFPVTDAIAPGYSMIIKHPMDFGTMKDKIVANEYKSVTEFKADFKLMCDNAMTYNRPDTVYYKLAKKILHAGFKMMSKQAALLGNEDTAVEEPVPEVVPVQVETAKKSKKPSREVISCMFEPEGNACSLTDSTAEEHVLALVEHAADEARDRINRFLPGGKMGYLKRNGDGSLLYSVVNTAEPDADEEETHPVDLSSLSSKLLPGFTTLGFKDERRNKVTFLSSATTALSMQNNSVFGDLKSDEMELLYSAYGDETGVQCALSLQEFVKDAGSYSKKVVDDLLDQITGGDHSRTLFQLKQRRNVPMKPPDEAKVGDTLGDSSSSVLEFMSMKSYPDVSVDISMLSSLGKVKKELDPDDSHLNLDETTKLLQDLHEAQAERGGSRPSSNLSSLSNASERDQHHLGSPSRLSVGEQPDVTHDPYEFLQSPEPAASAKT
# Experimental: Kinetic Experiments in Synovial Sarcoma Cell Lines. To assess the rate of BRD9 protein degradation following treatment with compound D1, this compound was administered at a steady dose of 15 nM over multiple time points in SYO-1 and ASKA synovial sarcoma cell lines. After cell treatment, BRD9 protein levels were determined by western blot analyses.
# Cells grown in flasks to log phase growth were washed with PBS and dissociated by adding TrypLE™ Express. Two wells were allocated per sample. Plates were incubated at 37° C. with 5% CO2 overnight.
# The next day, cells were treated with 15 nM compound D1, with the final DMSO content of 0.1% (v/v) matching the untreated control. After the designated incubation periods for each sample, as indicated in FIGS. 29A and 29B, cells were harvested, resuspended in PBS, and centrifuged at 5,000 rpm for 5 minutes. After being washed twice with PBS, the resulting cell pellets were stored at −80° C.
# Cells were processed for western blot analysis as follows (see Table 15 for specific conditions). Cell lysates were prepared by resuspending thawed pellets in RIPA lysis buffer with protease and phosphatase inhibitors and DNA nuclease enzymes. […] Samples were then analysed for total protein using BCA protein quantitation assay following manufacturer's instructions. […]
# [2] = target: T1, BRD9; test: Drug washout and competition experiments in SYO-1 cells; settings: two washouts, five washes per washout step
# Experimental: Drug Washout and Competition Experiments in SYO-1 Cells.
# SYO-1 cells grown in flasks to log phase growth were washed with PBS and dissociated by adding TrypLE™ Express. The collected cells were resuspended in DMEM (high glucose, with GlutaMAX™ supplement) with 10% FBS.
# Cells were collected using fresh media and measured for cell number. 1×10^6 cells were harvested for the 24-hour treatment sample and frozen down at −80° C. The remainder of the treated cells were washed five times with 10 ml fresh media, through sequential rounds of resuspension and centrifugation at 1,000 rpm for 5 minutes.
# Another 1×10^6 cells were harvested for the 24-hour post-washout sample and frozen down at −80° C. The remainder of the cells were split off evenly into two separate 100 mm petri dishes and resuspended in 10 ml culture medium in each plate.
# The remaining cells of each treatment group were washed five times with 10 mL fresh media. Cells were then seeded evenly into 6-well plates in 2 ml fresh media per well. 2 wells were allocated per collection time point.
smiles,measurement,setting,value
"COc1cc(-c2cn(C)c(=O)c3cnc(N4CCC4)cc23)cc(OC)c1CN1CCC(CN2CCC3(CC2)CN(c2ccc4c(c2)C(=O)N(C2CCC(=O)NC2=O)C4)C3)CC1 (racemic) [Compound D1, 3-[6-(7-[[1-([4-[6-(azetidin-1-yl)-2-methyl-1-oxo-2,7-naphthyridin-4-yl]-2,6-dimethoxyphenyl]methyl)piperidin-4-yl]methyl]-2,7-diazaspiro[3.5]nonan-2-yl)-1-oxo-3H-isoindol-2-yl]piperidine-2,6-dione]",BRD9 protein degradation,"[1]; ASKA cells, upon 30 minutes of treatment, 15 nM",nearly complete BRD9 protein degradation
same,time of treatment to markedly deplete BRD9 protein,"[1]; SYO-1 cells, 100-fold of NanoLuc DC50 (15 nM)",≤ 2 h
"COc1cc(-c2cn(C)c(=O)c3cnc(N4CCC4)cc23)cc(OC)c1CN1CCC(CN2CCC3(CC2)CN(c2ccc4c(c2)C(=O)N([C@H]2CCC(=O)NC2=O)C4)C3)CC1 (single isomer, unassigned) [Compound S-D1]",BRD9 degradation after second washout (removal of binding competitors),[2],retention of the BRD9-suppressive activity; also recorded: degraded again
